Laboratory results from US20260159536A1, “AKR1C3-ACTIVATED DNA ALKYLATING AGENT, AND MEDICAL APPLICATION THEREOF” (ASCENTAWITS PHARMACEUTICALS, LTD., priority 2021, published 2026).

Experiment: in vitro
Conditions: for % Remaining: with NADPH and AST-3021
Method: (1) Compound A for test, progesterone positive control, and 100 mM stock solutions of AST-3021 inhibitor were prepared and stored in the freezer (−10° C. to −30° C.).
1) Negative control group: at different time points (0 and 60 min), 30 μL/well of hepatocyte cytosol suspension containing 7.5 μM of sample for test was distributed in a 96-well plate. Three replicate wells were prepared in parallel.
2) Positive control group: at different time points (0, 5, 15, 30, 45 and 60 min), 30 μL/well of hepatocyte cytosol suspension containing 7.5 μM of the positive control was distributed in a 96-well plate. Three replicate wells were prepared in parallel.
3) Normal reaction group: at different time points (0, 5, 15, 30, 45 and 60 min), 30 μL/well of hepatocyte cytosol suspension containing 7.5 μM of sample for test was distributed in a 96-well plate. Three replicate wells were prepared in parallel.
4) Inhibition reaction group: at different time points (0, 5, 15, 30, 45 and 60 min), 30 μL/well of hepatocyte cytosol suspension containing […] of sample for test and 4.5 μM of the inhibitor was distributed in a 96-well plate. Three replicate wells were prepared in parallel.
6) 0 min samples: after 150 μL/well of acetonitrile containing the internal standard was added, then 15 μL/well of pre-heated NADPH working solution was added to the samples of normal reaction group, inhibition reaction group and positive control group, and 15 μL/well of pre-heated potassium phosphate buffer was added to the samples of negative control group.
7) Other samples (5, 15, 30, 45 and 60 min): for normal reaction group, inhibition reaction group and positive control group, 15 μL/well of pre-heated NADPH working solution was added to start the reaction; for negative control group, 15 μL/well of pre-heated potassium phosphate buffer was added. The reaction plates were then continued to incubate in a 37° C. water bath and the reactions were stopped by the addition of 150 μL/well of stop solution at the corresponding time points (5, 15, 30, 45 and 60 min).
The concentration of analyte in each sample was expressed as a peak area ratio (peak area analyte/peak areainternal standard), then the peak area ratio at 0 min was used as a reference to calculate the % Remaining at each time point of the incubation, and the ln logarithmic value of the % Remaining was linearly fitted to the incubation time and the half-life was calculated according to the following formula.
In the absence of AST-3021, 5 μM of progesterone was co-incubated with 2 mM of NADPH and 1 mg/mL of hepatocyte cytosol for 0-60 min as a positive control.

O=[N+]([O-])c1ccc(C(OP(=O)(N2CC2)N2CC2)C(F)(F)F)cc1Oc1ccc(-c2ccc(F)cc2)c(F)c1 (racemic) [Compound A]
Metabolic parameter k (monkey, 2 mM NADPH, no AST-3021 (normal reaction / positive control group), 5 μM): 0.0046 | average % Remaining (monkey, 2 mM NADPH, no AST-3021 (normal reaction / positive control group), 5 μM, 0 min): 100.00% | average % Remaining (monkey, 2 mM NADPH, no AST-3021 (normal reaction / positive control group), 5 μM, 5 min): 98.89% | average % Remaining (monkey, 2 mM NADPH, no AST-3021 (normal reaction / positive control group), 5 μM, 15 min): 94.52% | average % Remaining (monkey, 2 mM NADPH, no AST-3021 (normal reaction / positive control group), 5 μM, 30 min): 89.81% | average % Remaining (monkey, 2 mM NADPH, no AST-3021 (normal reaction / positive control group), 5 μM, 45 min): 83.43% | average % Remaining (monkey, 2 mM NADPH, no AST-3021 (normal reaction / positive control group), 5 μM, 60 min): 73.28% | Metabolic parameter k (monkey, negative control group (no NADPH, no AST-3021), 5 μM): 0.0040 | average % Remaining (monkey, negative control group (no NADPH, no AST-3021), 5 μM, 0 min): 100.00% | average % Remaining (monkey, negative control group (no NADPH, no AST-3021), 5 μM, 60 min): 78.57% | average % Remaining (mouse, 60 min, no NADPH, no AST-3021): 83.01% | average % Remaining (mouse, 60 min, with NADPH, no AST-3021): 88.89% | % Remaining (mouse): 74.94% | Metabolic parameter k (mouse, 2 mM NADPH + 3 μM AST-3021 (inhibition reaction group), 5 μM): 0.0041 | average % Remaining (mouse, 2 mM NADPH + 3 μM AST-3021 (inhibition reaction group), 5 μM, 0 min): 100.00% | average % Remaining (mouse, 2 mM NADPH + 3 μM AST-3021 (inhibition reaction group), 5 μM, 5 min): 90.76% | average % Remaining (mouse, 2 mM NADPH + 3 μM AST-3021 (inhibition reaction group), 5 μM, 15 min): 87.29% | average % Remaining (mouse, 2 mM NADPH + 3 μM AST-3021 (inhibition reaction group), 5 μM, 30 min): 85.00% | average % Remaining (mouse, 2 mM NADPH + 3 μM AST-3021 (inhibition reaction group), 5 μM, 45 min): 82.33% | average % Remaining (mouse, 2 mM NADPH + 3 μM AST-3021 (inhibition reaction group), 5 μM, 60 min): 74.94% | Metabolic parameter k (mouse, 2 mM NADPH, no AST-3021 (normal reaction / positive control group), 5 μM): 0.0014 | average % Remaining (mouse, 2 mM NADPH, no AST-3021 (normal reaction / positive control group), 5 μM, 0 min): 100.00% | average % Remaining (mouse, 2 mM NADPH, no AST-3021 (normal reaction / positive control group), 5 μM, 5 min): 99.18% | average % Remaining (mouse, 2 mM NADPH, no AST-3021 (normal reaction / positive control group), 5 μM, 15 min): 109.17% | average % Remaining (mouse, 2 mM NADPH, no AST-3021 (normal reaction / positive control group), 5 μM, 30 min): 95.86% | average % Remaining (mouse, 2 mM NADPH, no AST-3021 (normal reaction / positive control group), 5 μM, 45 min): 95.38% | average % Remaining (mouse, 2 mM NADPH, no AST-3021 (normal reaction / positive control group), 5 μM, 60 min): 88.89% | Metabolic parameter k (mouse, negative control group (no NADPH, no AST-3021), 5 μM): 0.0031 | average % Remaining (mouse, negative control group (no NADPH, no AST-3021), 5 μM, 0 min): 100.00% | average % Remaining (mouse, negative control group (no NADPH, no AST-3021), 5 μM, 60 min): 83.01% | average % Remaining (rat, 60 min, no NADPH, no AST-3021): 68.42% | average % Remaining (rat, 60 min, with NADPH, no AST-3021): 71.72% | % Remaining (rat): 63.81% | Metabolic parameter k (rat, 2 mM NADPH + 3 μM AST-3021 (inhibition reaction group), 5 μM): 0.0068 | average % Remaining (rat, 2 mM NADPH + 3 μM AST-3021 (inhibition reaction group), 5 μM, 0 min): 100.00% | average % Remaining (rat, 2 mM NADPH + 3 μM AST-3021 (inhibition reaction group), 5 μM, 5 min): 88.10% | average % Remaining (rat, 2 mM NADPH + 3 μM AST-3021 (inhibition reaction group), 5 μM, 15 min): 86.23% | average % Remaining (rat, 2 mM NADPH + 3 μM AST-3021 (inhibition reaction group), 5 μM, 30 min): 83.84% | average % Remaining (rat, 2 mM NADPH + 3 μM AST-3021 (inhibition reaction group), 5 μM, 45 min): 78.06% | average % Remaining (rat, 2 mM NADPH + 3 μM AST-3021 (inhibition reaction group), 5 μM, 60 min): 63.81% | Metabolic parameter k (rat, 2 mM NADPH, no AST-3021 (normal reaction / positive control group), 5 μM): 0.0053 | average % Remaining (rat, 2 mM NADPH, no AST-3021 (normal reaction / positive control group), 5 μM, 0 min): 100.00% | average % Remaining (rat, 2 mM NADPH, no AST-3021 (normal reaction / positive control group), 5 μM, 5 min): 90.07% | average % Remaining (rat, 2 mM NADPH, no AST-3021 (normal reaction / positive control group), 5 μM, 15 min): 90.26% | average % Remaining (rat, 2 mM NADPH, no AST-3021 (normal reaction / positive control group), 5 μM, 30 min): 84.80% | average % Remaining (rat, 2 mM NADPH, no AST-3021 (normal reaction / positive control group), 5 μM, 45 min): 81.99% | average % Remaining (rat, 2 mM NADPH, no AST-3021 (normal reaction / positive control group), 5 μM, 60 min): 71.72% | Metabolic parameter k (rat, negative control group (no NADPH, no AST-3021), 5 μM): 0.0063 | average % Remaining (rat, negative control group (no NADPH, no AST-3021), 5 μM, 0 min): 100.00% | average % Remaining (rat, negative control group (no NADPH, no AST-3021), 5 μM, 60 min): 68.42%
